According to US8629168B2, “Benzoxazoles and oxazolopyridines being useful as janus kinases inhibitors” (priority 2006, dated 2014):

Target: T1, GST-JAK2(808-1132) (Homo sapiens, UniProt O60674)
T1 construct: GST-JAK2(808-1132) is purchased from Invitrogen; purchased Invitrogen (Carlsbad, USA) #4288
Assay: EPK JAK/TYK-kinase family profiling assay (Caliper mobility shift), JAK2
Assay type: biochemical
Details: Caliper mobility shift assay of Example 187, 20 μM ATP, read-out: IC50 with Test in present Example
Outline: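 Caliper mobility-shift assay with the GST-tagged kinase domain and a fluorescently labeled peptide substrate plus ATP, run 60 min at 30° C and then stopped with EDTA buffer. Turnover was taken as the substrate/product ratio. Compounds were tested at eight final concentrations from 10 to 0.003 μM.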

T1 sequence (O60674 808-1132): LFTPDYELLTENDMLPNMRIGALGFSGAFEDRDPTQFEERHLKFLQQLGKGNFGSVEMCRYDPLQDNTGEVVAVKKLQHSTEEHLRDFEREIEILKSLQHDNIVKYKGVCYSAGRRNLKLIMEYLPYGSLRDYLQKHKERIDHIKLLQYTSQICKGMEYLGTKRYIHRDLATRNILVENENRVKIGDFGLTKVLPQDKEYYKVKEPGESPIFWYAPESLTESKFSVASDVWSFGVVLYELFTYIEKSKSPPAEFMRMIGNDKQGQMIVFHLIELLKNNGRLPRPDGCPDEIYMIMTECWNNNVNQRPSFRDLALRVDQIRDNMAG

SMILES	IC50 [nM]
COc1cc(Nc2nc3cccc(-c4ccc(CO)cc4)c3o2)cc(OC)c1OC [Example 143, {4-[2-(3,4,5-Trimethoxy-phenylamino)-benzooxazol-7-yl]-phenyl}-methanol]	16.5
CNS(=O)(=O)c1ccc(-c2cccc3nc(Nc4ccc(C)c(OC)c4)oc23)cc1 [Example 144, 4-[2-(3-Methoxy-4-methyl-phenylamino)-benzooxazol-7-yl]-methyl-benzenesulfonamide]	725
COCCNC(=O)c1ccc(Nc2nc3cccc(-c4ccc(C(=O)N5CCOCC5)cc4)c3o2)cc1 [Example 145, N-(2-Methoxy-ethyl)-4-{7-[4-(morpholine-4-carbonyl)-phenyl]-benzooxazol-2-ylamino}-benzamide]	55
CN(C)C(=O)c1ccc(Nc2nc3cccc(-c4ccc(S(N)(=O)=O)cc4)c3o2)cc1 [Example 146, N,N-Dimethyl-4-[7-(4-sulfamoyl-phenyl)-benzooxazol-2-ylamino]-benzamide]	19.5
COCCNC(=O)c1ccc(Nc2nc3cccc(-c4ccc(CC(=O)N5CCOCC5)cc4)c3o2)cc1 [Example 147, N-(2-Methoxy-ethyl)-4-{7-[4-(2-morpholin-4-yl-2-oxo-ethyl)-phenyl]-benzooxazol-2-ylamino}-benzamide]	28
CS(=O)(=O)Nc1cccc(Nc2nc3cccc(-c4ccc(C(=O)N5CCOCC5)cc4)c3o2)c1 [Example 148, N-(3-{7-[4-(Morpholine-4-carbonyl)-phenyl]-benzooxazol-2-ylamino}-phenyl)-methanesulfonamide]	50
COC(=O)c1ccc(Nc2nc3cccc(-c4ccc(C(=O)N5CCOCC5)cc4)c3o2)cc1OC [Example 149, 2-Methoxy-4-{7-[4-(morpholine-4-carbonyl)-phenyl]-benzooxazol-2-ylamino}-benzoic acid methyl ester]	62
COc1cc(Nc2nc3cccc(-c4ccc(C(=O)N5CCOCC5)cc4)c3o2)ccc1C(=O)N(C)C [Example 150, 2-Methoxy-N,N-dimethyl-4-{7-[4-(morpholine-4-carbonyl)-phenyl]-benzooxazol-2-ylamino}-benzamide]	25
CN1CCN(c2ccc(Nc3nc4cccc(-c5ccc(C(C)(C)C(=O)N6CCOCC6)cc5)c4o3)cc2)CC1 [Example 151, 2-Methyl-2-(4-{2-[4-(4-methyl-piperazin-1-yl)-phenylamino]-benzooxazol-7-yl}-phenyl)-1-morpholin-4-yl-propan-1-one]	27.5
CCN1CCN(c2ccc(Nc3nc4ccnc(-c5cc(F)c(CN6CCOCC6)c(F)c5)c4o3)cc2C)CC1 [Example 152, [4-(3,5-Difluoro-4-morpholin-4-ylmethyl-phenyl)-oxazolo[5,4-c]pyridin-2-yl]-[4-(4-ethyl-piperazin-1-yl)-3-methyl-phenyl]-amine]	180
CCN1CCN(c2ccc(Nc3nc4ccnc(-c5cc(F)c(CN6CCS(=O)(=O)CC6)c(F)c5)c4o3)cc2C)CC1 [Example 153, {4-[4-(1,1-Dioxo-1lambda*6*-thiomorpholin-4-ylmethyl)-3,5-difluoro-phenyl]-oxazolo[5,4-c]pyridin-2-yl}-[4-(4-ethyl-piperazin-1-yl)-3-methyl-phenyl]-amine]	26
Cc1cc(Nc2nc3cccc(-c4cc(F)c(CN5CCS(=O)(=O)CC5)c(F)c4)c3o2)ccc1N1CCN(C2CC2)CC1 [Example 154, [4-(4-Cyclopropyl-piperazin-1-yl)-3-methyl-phenyl]-{7-[4-(1,1-dioxo-1lambda*6*-thiomorpholin-4-ylmethyl)-3,5-difluoro-phenyl]-benzooxazol-2-yl}-amine]	3.3
Cc1cc(-c2cccc3nc(Nc4ccc(N5CCN(C6CC6)CC5)c(C)c4)oc23)ccc1C(=O)N1CCOCC1 [Example 155, (4-{2-[4-(4-Cyclopropyl-piperazin-1-yl)-3-methyl-phenylamino]-benzooxazol-7-yl}-2-methyl-phenyl)-morpholin-4-yl-methanone]	13.5
Cc1cc(Nc2nc3cccc(-c4ccc(C(=O)N5CCOCC5)c(F)c4)c3o2)ccc1N1CCN(C2CC2)CC1 [Example 156, (4-{2-[4-(4-Cyclopropyl-piperazin-1-yl)-3-methyl-phenylamino]-benzooxazol-7-yl}-2-fluoro-phenyl)-morpholin-4-yl-methanone]	20.5
Cc1cc(Nc2nc3cccc(-c4ccc(C(C)(C)C(=O)N5CCOCC5)cc4)c3o2)ccc1N1CCN(C2CC2)CC1 [Example 157, 2-(4-{2-[4-(4-Cyclopropyl-piperazin-1-yl)-3-methyl-phenylamino]-benzooxazol-7-yl}-phenyl)-2-methyl-1-morpholin-4-yl-propan-1-one]	11.7
Cc1cc(Nc2nc3cccc(-c4cc(F)c(CN5CCOCC5)c(F)c4)c3o2)ccc1C(=O)N(C)CCN(C)C [Example 158, 4-[7-(3,5-Difluoro-4-morpholin-4-ylmethyl-phenyl)-benzooxazol-2-ylamino]-N-(2-dimethylamino-ethyl)-2,N-dimethyl-benzamide]	21
Cc1cc(Nc2nc3cccc(-c4cc(F)c(CN5CCS(=O)(=O)CC5)c(F)c4)c3o2)ccc1C(=O)N(C)CCN(C)C [Example 159, N-(2-Dimethylamino-ethyl)-4-{7-[4-(1,1-dioxo-1lambda*6*-thiomorpholin-4-ylmethyl)-3,5-difluoro-phenyl]-benzooxazol-2-ylamino}-2,N-dimethyl-benzamide]	6.2
Cc1cc(Nc2nc3cccc(-c4cc(F)c(CN5CCOCC5)c(F)c4)c3o2)ccc1N1CCN(C2CC2)CC1 [Example 160, [4-(4-Cyclopropyl-piperazin-1-yl)-3-methyl-phenyl]-[7-(3,5-difluoro-4-morpholin-4-ylmethyl-phenyl)-benzooxazol-2-yl]-amine]	18
Cc1cc(Nc2nc3cccc(-c4cc(F)c(CN5CCOCC5)c(F)c4)c3o2)cn(C)c1=O [Example 161, 5-[7-(3,5-Difluoro-4-morpholin-4-ylmethyl-phenyl)-benzooxazol-2-ylamino]-1,3-dimethyl-1H-pyridin-2-one]	80
Cc1cc(-c2cccc3nc(Nc4ccc(N5CCN(C6CC6)CC5)c(C)c4)oc23)ccc1C(=O)N1CCS(=O)(=O)CC1 [Example 162, (4-{2-[4-(4-Cyclopropyl-piperazin-1-yl)-3-methyl-phenylamino]-benzooxazol-7-yl}-2-methyl-phenyl)-(1,1-dioxo-1lambda*6*-thiomorpholin-4-yl)-methanone]	8.9
Cc1cc(Nc2nc3cccc(-c4cc(F)c(CN5CCOCC5)c(F)c4)c3o2)ccc1N1CCOCC1 [Example 163, [7-(3,5-Difluoro-4-morpholin-4-ylmethyl-phenyl)-benzooxazol-2-yl]-(3-methyl-4-morpholin-4-yl-phenyl)-amine]	11.6
Cc1cc(Nc2nc3cccc(-c4cc(F)c(CN5CCS(=O)(=O)CC5)c(F)c4)c3o2)ccc1N1CCOCC1 [Example 164, {7-[4-(1,1-Dioxo-1lambda*6*-thiomorpholin-4-ylmethyl)-3,5-difluoro-phenyl]-benzooxazol-2-yl}-(3-methyl-4-morpholin-4-yl-phenyl)-amine]	7.25
Cc1cc(Nc2nc3cccc(-c4ccc(C(=O)N5CCS(=O)(=O)CC5)cc4)c3o2)ccc1CN1CCOCC1 [Example 165, (1,1-Dioxo-1lambda*6*-thiomorpholin-4-yl)-{4-[2-(3-methyl-4-morpholin-4-ylmethyl-phenylamino)-benzooxazol-7-yl]-phenyl}-methanone]	11
Cc1cc(Nc2nc3cccc(-c4ccc(C(=O)N5CCOCC5)c(C)c4)c3o2)ccc1CN1CCOCC1 [Example 166, {2-Methyl-4-[2-(3-methyl-4-morpholin-4-ylmethyl-phenylamino)-benzooxazol-7-yl]-phenyl}-morpholin-4-yl-methanone]	11.1
Cc1cc(Nc2nc3cccc(-c4ccc(C(C)(C)C(=O)N5CCOCC5)cc4)c3o2)ccc1CN1CCOCC1 [Example 167, 2-Methyl-2-{4-[2-(3-methyl-4-morpholin-4-ylmethyl-phenylamino)-benzooxazol-7-yl]-phenyl}-1-morpholin-4-yl-propan-1-one]	14
Cc1cc(Nc2nc3ccnc(-c4cc(F)c(CN5CCS(=O)(=O)CC5)c(F)c4)c3o2)ccc1C(=O)N(C)C [Example 168, 4-{4-[4-(1,1-Dioxo-1lambda*6*-thiomorpholin-4-ylmethyl)-3,5-difluoro-phenyl]-oxazolo[5,4-c]pyridin-2-ylamino}-2,N,N-trimethyl-benzamide]	130
